Experimental data from the supplement of paper PMC3974653.
Counter-ions that a name gives are not always drawn.

System: MTT (mouse pheochromocytoma)
Assay: IC50 of cell viability (ATP content)
Conditions: (24 or 48 h)
Summary of the method: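 Library compounds were tested at 8 final concentrations (0.5 nM to 46 µM) on MTT mouse pheochromocytoma cells for 24 or 48 hrs, with readout by CellTiter-Glo ATP luminescence. Signals were normalised with positive-control wells at 100% and DMSO wells at 0%. IC50 values were obtained by a four-parameter logistic fit.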

IC50 of cell viability | SMILES
> 46 µM | NC(=O)[C@@H]1CCCN1C(=O)[C@H](Cc1cnc[nH]1)NC(=O)[C@@H]1CCC(=O)N1 [PROTIRELIN]
> 46 µM | CCc1ccc(CCOc2ccc(CC3SC(=O)NC3=O)cc2)nc1.Cl (centres undefined) [PIOGLITAZONE HYDROCHLORIDE]
> 46 µM | CCc1ccc(S(=O)(=O)O)cc1
> 46 µM | c1ccc2sc(SN3CCOCC3)nc2c1 [MORPHOLINYLMERCAPTOBENZOTHIAZOLE]
> 46 µM | NCC1CCC(C(=O)O)CC1 (centres undefined) [Tranexamic acid]
> 46 µM | O=P(O)(O)OC[C@H]1O[C@](O)(COP(=O)(O)O)[C@@H](O)[C@@H]1O [FOSFRUCTOSUM]
> 46 µM | OC1OC[C@@H](O)[C@H](O)[C@@H]1O (some centres undefined) [Xylose]
> 46 µM | O=C(OCc1ccccc1)c1cccnc1 [BENZYL NICOTINATE]
> 46 µM | CC(C)C[C@H](NC(=O)[C@@H](O)[C@H](N)Cc1ccccc1)C(=O)O.Cl [Bestatin hydrochloride]
> 46 µM | CC[N+](CC)(CC)CCOc1cccc(OCC[N+](CC)(CC)CC)c1OCC[N+](CC)(CC)CC [GALLAMINE]
> 46 µM | CC1(C)S[C@@H]2[C@H](NC(=O)CC3=CC=CC=C3)C(=O)[N@@]2[C@@H]1C(O)=O [Capicillin]
> 46 µM | CC[N+](CC)(CC)CCOC(=O)C(C1CCCC1)C1CCCC1 [DIPONIUM BROMIDE]
> 46 µM | CN(C)[C@H]\1[C@@H]2[C@@H](O)[C@@H]\3C(=C)C4=C(Cl)C=CC(=C4C(=O)C3=C(\O)[C@@]2(O)C(=O)\C(=C1O)C(N)=O)O.OC(=O)C5=C(O)C=CC(=C5)[S+](O)([O-])=O [Meclocycline sulfosalicylate]
> 46 µM | CN1CCC(Nc2ncc3ncnc(Nc4ccc(F)c(Cl)c4)c3n2)CC1 [BIBX 1382 dihydrochloride]
> 46 µM | Cc1c(C)n(Cc2ccccc2)c2ccc(C(=O)OCCN(C)C)cc12 [Indocate]
> 46 µM | CC(=O)Nc1ccc(O)cc1 [Acetaminophen (4-hydroxyacetanilide)]
> 46 µM | N[C@H]([C@@H]1C\C(=N/O1)Cl)C(O)=O [ACIVICIN]
> 46 µM | CC/1=C/N(C(=O)/C=C1)C2=CC=CC=C2 [Pirfenidone]
> 46 µM | CN1CCN(c2c(F)cc3c(=O)c(C(=O)O)cn(CCF)c3c2F)CC1 [FLEROXACIN]
> 46 µM | CN1CCN(CCC(=O)N2c3ccccc3Sc3ccc(C(F)(F)F)cc32)CC1 [Ftormetazine]

IC50 of cell viability | SMILES
> 46 µM | CC(C)(C)C(=O)C(Oc1ccc(Cl)cc1)n1ccnc1 (centres undefined) [Climbazole]
> 46 µM | N#C/C(=C1/SC[C@@H](c2ccc(Cl)cc2Cl)S1)n1ccnc1 [Luliconazole]
> 46 µM | CC(=O)OCC(=O)[C@H]1CC[C@H]2[C@@H]3CCC/4=C/C(=O)CC[C@]4(C)[C@H]3CC[C@]12C [DESOXYCORTICOSTERONE ACETATE]
> 46 µM | COc1cc(C(=O)NS(=O)(=O)c2ccccc2C)ccc1Cc1cn(C)c2ccc(NC(=O)OC3CCCC3)cc12 [Zafirlukast]
> 46 µM | Cn1cc(NC(=O)c2cc(NC(=O)c3cc(NC=O)cn3C)cn2C)cc1C(=O)NCCC(=N)N [DISTAMYCIN A]
> 46 µM | CC(=O)NC(CCC(N)=O)C(=O)O [Na-Acetyl-L-glutamine]
> 46 µM | O=C(O)C(=O)Nc1cccc(-c2nnn[nH]2)c1 [Acitazanolast]
> 46 µM | CC(=O)OCC(=O)[C@@]1(O)CC[C@@H]2[C@H]3CC\C4=C\C(=O)\C=C/[C@]4(C)[C@]3(F)[C@@H](O)C[C@@]12C [Isoflupredone acetate]
> 46 µM | CC1(C)OC2CC(=O)OC[C@@]23C1CC(=O)[C@]1(C)C3CC[C@@]2(C)C(c3ccoc3)OC(=O)C3O[C@@]321 (some centres undefined) [LIMONIN]
> 46 µM | CC(=O)OCC(=O)[C@@]1(O)CCC2C3CCC4=CC(=O)CC[C@]4(C)C3=CC[C@@]21C (some centres undefined) [ANECORTAVE ACETATE]
> 46 µM | CN(C)CCOC1=Cc2ccccc2Sc2ccc(Cl)cc21 [Zotepine]
> 46 µM | CC(C)(C)C(=O)NCCCC(=O)O [Pivagabine]
> 46 µM | CN1CCN(c2cc3c(nn2)Oc2ccccc2N3C)CC1 [Pipofezine]
> 46 µM | CC1(C)O[C@@H]2C[C@H]3[C@@H]4CCC/5=C/C(=O)/C=C\[C@]5(C)[C@@]4(F)[C@@H](O)C[C@]3(C)[C@@]2(O1)C(=O)CO [Triamcinolone acetonide]
> 46 µM | CC(=O)CC(c1ccccc1)C1C(=O)Oc2ccccc2C1=O (centres undefined) [WARFARIN POTASSIUM]
> 46 µM | CC(C)(C)c1ccc(C(O)CCCN2CCC(C(O)(c3ccccc3)c3ccccc3)CC2)cc1 (centres undefined) [TERFENADINE]
> 46 µM | Cc1cccn2c(=O)c(-c3nnn[n-]3)cnc12 [PEMIROLAST POTASSIUM]
> 46 µM | CNC[C@H](O)c1ccc(OC(=O)C(C)(C)C)c(OC(=O)C(C)(C)C)c1 [Dipivefrin hydrochloride]
> 46 µM | O=C1[C@@H]2[C@H]3CC[C@H](C3)[C@@H]2C(=O)N1CCCCN1CCN(c2ncccn2)CC1 [Tandospirone]
> 46 µM | NCC(O)CC(=O)O (centres undefined) [AMINOHYDROXYBUTYRIC ACID]

IC50 of cell viability | SMILES
> 46 µM | CSCC[C@H](NC(=O)[C@@H](Cc1ccc(O[S+](=O)([O-])O)cc1)NC(=O)[C@H](N)CC(=O)O)C(=O)NCC(=O)N[C@@H](Cc1c[nH]c2ccccc12)C(=O)N[C@H](CCSC)C(=O)N[C@H](CC(=O)O)C(=O)N[C@@H](Cc1ccccc1)C(N)=O [SINCALIDE]
> 46 µM | NCCCC(N)C(=O)O [Poly-L-ornithine hydrochloride]
> 46 µM | O=P(O)(O)C(O)(Cc1cnc2ccccn12)P(=O)(O)O [Minodronic acid]
> 46 µM | CO[C@H]1C[C@@H]2CC[C@@H](C)[C@@](O)(O2)C(=O)C(=O)N2CCCC[C@H]2C(=O)O[C@H]([C@H](C)C[C@@H]2CC[C@@H](OC(=O)C(C)(CO)CO)[C@H](OC)C2)CC(=O)[C@H](C)C=C(C)[C@@H](O)[C@@H](OC)C(=O)[C@H](C)C[C@H](C)/C=C/C=C/C=C1C [TEMSIROLIMUS]
> 46 µM | NC(=O)c1cccnc1 [Niacinamide]
> 46 µM | COC1=C(OC)C(=O)C(C/C=C(\C)CC/C=C(\C)CC/C=C(\C)CC/C=C(\C)CC/C=C(\C)CC/C=C(\C)CC/C=C(\C)CC/C=C(\C)CC/C=C(\C)CCC=C(C)C)=C(C)C1=O [Ubidecarenone]
> 46 µM | Cc1cc(C)cc(OCC2CNC(=O)O2)c1 (centres undefined) [METAXALONE]
> 46 µM | CCCCCCCCCCCCCC(=O)OCC(COP(=O)([O-])OCC[N+](C)(C)C)OC(=O)CCCCCCCCCCCCC (centres undefined) [DIMYRISTOYL LECITHIN]
> 46 µM | OC[C@@H](O)[C@@H](O)[C@H](O)[C@H](O)CO [D-Mannitol]
> 46 µM | CN(C)C(=O)Nc1ccc(Cl)c(Cl)c1 [DIURON]
> 46 µM | CN(c1nccc(O)n1)C1CCN(c2nc3ccccc3n2Cc2ccc(F)cc2)CC1 [MIZOLASTINE]
> 46 µM | CN[C@@H]1CCc2[nH]c3ccc(C(N)=O)cc3c2C1.O.O=C(O)CCC(=O)O [Frovatriptan Succinate Monohydrate]
> 46 µM | O=C(O)Cc1ccc(-c2ccccc2)cc1 [Felbinac]
> 46 µM | O=C([O-])c1ccccc1-c1c2cc(Br)c(=O)c(Br)c-2oc2c(Br)c([O-])c(Br)cc12 [EOSINE YELLOWISH]
> 46 µM | C[N+](C)(CCOc1ccccc1)Cc1cccs1.O=S([O-])Oc1ccc(Cl)cc1 [N,N-Dimethyl-N-2-phenoxyethyl-N-2 Äô-thenylammoniu ...]
> 46 µM | OCCOCCN1CCN(CC1)C/2=N/C3=CC=CC=C3SC4=CC=CC=C24 [quetiapine]
> 46 µM | COc1ccc([C@]2(C#N)CC[C@H](C(=O)O)CC2)cc1OC1CCCC1 [CILOMILAST]
> 46 µM | CC(C)(S)C(=O)NC(CS)C(=O)O (centres undefined) [Bucillamine]
> 46 µM | C#C[C@]1(O)CC[C@H]2[C@@H]3CCc4cc(O)ccc4[C@H]3CC[C@@]21C [ETHINYL ESTRADIOL]
> 46 µM | CCCCC(=O)N(Cc1ccc(-c2ccccc2-c2nn[nH]n2)cc1)C(C(=O)O)C(C)C (centres undefined) [VALSARTAN]

SMILES | IC50 of cell viability
c1ccc2c(c1)Nc1ccccc1S2 [Fenotiazina] | > 46 µM
COc1ccc(OC)c(C(O)C(C)N)c1.Cl (centres undefined) [METHOXAMINE HYDROCHLORIDE] | > 46 µM
CC(CO)NC(=O)C1C=C2c3cccc4[nH]cc(c34)CC2N(C)C1 (centres undefined) [ERGONOVINE] | > 46 µM
CCC(COC(=O)c1cc(OC)c(OC)c(OC)c1)(c1ccccc1)N(C)C.O=C(O)/C=C\C(=O)O (centres undefined) [TRIMEBUTINE MALEATE] | > 46 µM
C[N@H+]1CC[C@@]23C4OC5=C2C(=CC=C5OC(C)=O)C[C@H]1[C@@H]3\C=C/[C@@H]4OC(C)=O (some centres undefined) [DIAMORPHINE HYDROCHLORIDE] | > 46 µM
C[N+](C)(C)CCOC(=O)C(O)(c1ccccc1)c1ccccc1 [METOCINII IODIDUM] | > 46 µM
CCS(=O)(=O)C(C)(C)S(=O)(=O)CC [SULFONMETHANE] | > 46 µM
CCCC(C)(COC(N)=O)COC(N)=O [Meprobamate] | > 46 µM
c1ccc(C2(c3ccccc3)CC2C2=NCCN2)cc1 (centres undefined) [Cibenzoline succinate] | > 46 µM
